Measured values from patent US20240417387A1, “SULFONYLPIPERAZINYL COMPOUNDS FOR TREATMENT OF BACTERIAL INFECTIONS” (Hoffmann-La Roche Inc., priority 2021, published 2024).
Values after ≈ are worked out from the molar mass of the structure shown.

Legend:
[1] = Human microsome stability assay; type: in vitro ADME; details: human liver microsomes 0.5 mg/mL, 37° C., pH 7.4, NADPH regenerating system
In short: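 Compound […] with 0.5 mg/mL human liver microsomal protein in 100 mM potassium phosphate pH 7.4, 10 min preincubation at 37 °C, started with NADPH regenerating system. Sampled 0–30 min, remaining compound by LC-MS/MS; clearance binned low <7, medium 7–16.2, high >16.2 mL/min/kg.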

[2] = system: Escherichia coli ATCC 25922; experiment: Minimal Inhibitory Concentration (MIC) broth dilution assay, E. coli ATCC 25922; type: cell-based; details: Escherichia coli, ATCC25922, 20 h, read-out: MIC E. coli ATCC 25922
In short: (§1)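 Broth microdilution with twofold compound series in cation-adjusted Mueller Hinton broth, inoculum 5×10^5 CFU/mL, applied to each strain. Plates incubated 20 h at 35 °C in ambient air. MIC […] recorded as the lowest concentration with no visible growth, read by eye.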

[3] = system: Klebsiella pneumonia ATCC 43816; experiment: Minimal Inhibitory Concentration (MIC) broth dilution assay, K. pneumonia ATCC 43816; type: cell-based; details: Klebsiella pneumoniae, ATCC43816, 20 hours at 35° C., CAMHB, read-out: MIC K. p ATCC 43816
In short: as §1

[4] = system: Escherichia coli BW 25113; experiment: Minimal Inhibitory Concentration (MIC) broth dilution assay, E. coli BW 25113; type: cell-based; details: Escherichia coli, BW25113, 20 hours at 35° C., CAMHB, read-out: MIC E. coli K-12 BW 25113
In short: as §1

[5] = biological target: Escherichia coli UDP-2,3-diacylglucosamine hydrolase (LpxH) (Escherichia coli (strain K12), UniProt P43341); experiment: Enzymatic IC50 assay of Escherichia coli LpxH (UMP/CMP-Glo luminescence); type: biochemical; details: Enzymatic IC50 against Escherichia coli LpxH; read-out: IC50 (converted)
In short: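 LpxH (2 nM) preincubated 10 min at room temperature with compound (100 μM to 1.7 nM) in Tris-HCl pH7.5 buffer with 2.5 mM MnCl2, then reacted with 5 μM UDP-DAG for 20 min. Reaction heat-stopped at 95° C.; released UMP converted to ATP and read by luciferase luminescence (UMP/CMP-Glo).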

[6] = system: efflux-deficient Escherichia coli strains; details: reported in Bioorganic Chemistry (2020), 102, 104055; cited from earlier work
LPS synthesis pathway = details: reported in Bioorganic Chemistry (2020), 102, 104055; cited from earlier work

Sequence of Escherichia coli UDP-2,3-diacylglucosamine hydrolase (LpxH) (P43341 whole entry): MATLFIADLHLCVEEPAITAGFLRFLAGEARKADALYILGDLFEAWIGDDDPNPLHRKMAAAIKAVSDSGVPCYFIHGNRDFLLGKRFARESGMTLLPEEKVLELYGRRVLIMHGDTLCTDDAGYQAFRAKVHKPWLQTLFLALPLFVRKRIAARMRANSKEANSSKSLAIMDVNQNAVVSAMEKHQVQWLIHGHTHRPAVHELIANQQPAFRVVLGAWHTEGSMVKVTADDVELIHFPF

| Structure (SMILES) | Clearance of Human microsome [1] | MIC [2] | MIC [3] | MIC [4] | IC50 [5] | antibiotic activity against efflux-deficient Escherichia coli strains [6] | LPS synthesis pathway inhibition activity (LPS synthesis pathway) |
| --- | --- | --- | --- | --- | --- | --- | --- |
| NCCCNC(=O)[C@H]1CC[C@H](C(F)(F)c2cc(Cl)nc(N3CCN(S(=O)(=O)c4ccc(N5C[C@H](N)CC5=O)cc4)CC3)c2)CC1 [Example 056, Trans-N-(3-aminopropyl)-4-[[2-chloro-6-[4-[4-[(4R)-4-amino-2-oxo-pyrrolidin-1-yl]phenyl]sulfonylpiperazin-1-yl]-4-pyridyl]-difluoro-methyl]cyclohexanecarboxamide] | 11.37 mL/min/kg | 1.2 µg/mL (≈ 1.8 µM) | 1.1 µg/mL (≈ 1.65 µM) | 1.1 µg/mL (≈ 1.65 µM) | 5.99 nM | – | – |
| NCC1CN(C(=O)[C@H]2CC[C@H](C(F)(F)c3cc(Cl)nc(N4CCN(S(=O)(=O)c5ccc(N6C[C@H](N)CC6=O)cc5)CC4)c3)CC2)C1 [Example 057] | 6.15 mL/min/kg | 1.1 µg/mL (≈ 1.62 µM) | 1.1 µg/mL (≈ 1.62 µM) | 1.1 µg/mL (≈ 1.62 µM) | 2.94 nM | – | – |
| NCCCNC(=O)[C@H]1CC[C@H](C(F)(F)c2cc(Cl)nc(N3CCN(S(=O)(=O)c4ccc(N5C[C@@H](CO)OC5=O)cc4)CC3)c2)CC1 [Example 058, Trans-N-(3-aminopropyl)-4-[[2-chloro-6-[4-[4-[(5S)-5-(hydroxymethyl)-2-oxo-oxazolidin-3-yl]phenyl]sulfonylpiperazin-1-y1]-4-pyridyl]-difluoro-methyl]cyclohexanecarboxamide] | 8.04 mL/min/kg | 1.1 µg/mL (≈ 1.61 µM) | 1.1 µg/mL (≈ 1.61 µM) | 0.29 µg/mL (≈ 0.423 µM) | < 2.92 nM | – | – |
| NCCCNC(=O)[C@H]1CC[C@H](C(F)(F)c2cc(Cl)nc(N3CCN(S(=O)(=O)c4ccc(N5C[C@H](CO)OC5=O)cc4)CC3)c2)CC1 [Example 059, Trans-N-(3-aminopropyl)-4-[[2-chloro-6-[4-[4-[(5R)-5-(hydroxymethyl)-2-oxo-oxazolidin-3-yl]phenyl]sulfonylpiperazin-1-yl]-4-pyridyl]-difluoro-methyl]cyclohexanecarboxamide] | 6.15 mL/min/kg | 1.2 µg/mL (≈ 1.75 µM) | 1.2 µg/mL (≈ 1.75 µM) | 1.2 µg/mL (≈ 1.75 µM) | < 2.92 nM | – | – |
| NCCCNC(=O)[C@H]1CC[C@H](C(F)(F)c2cc(Cl)nc(N3CCN(S(=O)(=O)c4ccc(N5CC(N6CCNCC6)CC5=O)cc4)CC3)c2)CC1 (stereo partly drawn) [Example 060, Trans-N-(3-aminopropyl)-4-[[2-chloro-6-[4-[4-(2-oxo-4-piperazin-1-yl-pyrrolidin-1-yl)phenyl]sulfonylpiperazin-1-y1]-4-pyridyl]-difluoro-methyl]cyclohexanecarboxamide] | 8.12 mL/min/kg | 1.8 µg/mL (≈ 2.44 µM) | 1.2 µg/mL (≈ 1.63 µM) | 2.4 µg/mL (≈ 3.26 µM) | < 2.71 nM | – | – |
| NCCCNC(=O)[C@H]1CC[C@H](C(F)(F)c2cc(Cl)nc(N3CCN(S(=O)(=O)c4ccc(N5C[C@H](N)CC5=O)nc4)CC3)c2)CC1 [Example 061, Trans-N-(3-aminopropyl)-4-[[2-chloro-6-[4-[[6-[(4R)-4-amino-2-oxo-pyrrolidin-1-yl]-3-pyridyl]sulfonyl]piperazin-1-yl]-4-pyridyl]-difluoro-methyl]cyclohexanecarboxamide] | 6.15 mL/min/kg | 1.1 µg/mL (≈ 1.64 µM) | 1.1 µg/mL (≈ 1.64 µM) | 1.1 µg/mL (≈ 1.64 µM) | 2.99 nM | – | – |
| NCCNCCNC(=O)[C@H]1CC[C@H](C(F)(F)c2cc(Cl)nc(N3CCN(S(=O)(=O)c4ccc(N5C[C@H](N)CC5=O)cc4)CC3)c2)CC1 [Example 072, Trans-N-[2-(2-aminoethylamino)ethyl]-4-[[2-chloro-6-[4-[4-[(4R)-4-amino-2-oxo-pyrrolidin-1-yl]phenyl]sulfonylpiperazin-1-yl]-4-pyridyl]-difluoro-methyl]cyclohexanecarboxamide] | 6.15 mL/min/kg | 1.1 µg/mL (≈ 1.58 µM) | 1.1 µg/mL (≈ 1.58 µM) | 0.57 µg/mL (≈ 0.817 µM) | 4.3 nM | – | – |
| C[N+](C)(CCN)CCNC(=O)[C@H]1CC[C@H](C(F)(F)c2cc(Cl)nc(N3CCN(S(=O)(=O)c4ccc(N5C[C@H](N)CC5=O)cc4)CC3)c2)CC1 [Example 073, Trans-2-aminoethyl-[2-[[4-[[2-chloro-6-[4-[4-[(4R)-4-amino-2-oxo-pyrrolidin-1-yl]phenyl]sulfonylpiperazin-1-yl]-4-pyridyl]-difluoro-methyl]cyclohexanecarbonyl]amino]ethyl]-dimethyl-ammonium] | 6.15 mL/min/kg | 1.2 µg/mL | 2.4 µg/mL | 1.2 µg/mL | < 2.75 nM | – | – |
| NCC[N+]1(CCNC(=O)[C@H]2CC[C@H](C(F)(F)c3cc(Cl)nc(N4CCN(S(=O)(=O)c5ccc(N6C[C@H](N)CC6=O)cc5)CC4)c3)CC2)CCCC1 [Example 074, Trans-N-[2-[1-(2-aminoethyl)pyrrolidin-1-ium-1-yl]ethyl]-4-[[2-[4-[4-[(4R)-4-amino-2-oxo-pyrrolidin-1-yl]phenyl]sulfonylpiperazin-1-yl]-6-chloro-4-pyridyl]-difluoro-methyl]cyclohexanecarboxamide] | 6.15 mL/min/kg | 1.9 µg/mL | 1.9 µg/mL | 1.9 µg/mL | 39.9 nM | – | – |
| NCC(=O)NCCNC(=O)[C@H]1CC[C@H](C(F)(F)c2cc(Cl)nc(N3CCN(S(=O)(=O)c4ccc(N5C[C@H](N)CC5=O)cc4)CC3)c2)CC1 [Example 075, Trans-N-[2-[(2-aminoacetyl)amino]ethyl]-4-[[2-chloro-6-[4-[4-[(4R)-4-amino-2-oxo-pyrrolidin-1-yl]phenyl]sulfonylpiperazin-1-yl]-4-pyridyl]-difluoro-methyl]cyclohexanecarboxamide] | 10.47 mL/min/kg | 2.3 µg/mL (≈ 3.23 µM) | 1.2 µg/mL (≈ 1.69 µM) | 2.3 µg/mL (≈ 3.23 µM) | 8.44 nM | – | – |
| COC(CN)CNC(=O)[C@H]1CC[C@H](C(F)(F)c2cc(Cl)nc(N3CCN(S(=O)(=O)c4ccc(N5C[C@H](N)CC5=O)cc4)CC3)c2)CC1 (stereo partly drawn) [Example 076, Trans-N-(3-amino-2-methoxy-propyl)-4-[[2-chloro-6-[4-[4-[(4R)-4-amino-2-oxo-pyrrolidin-1-yl]phenyl]sulfonylpiperazin-1-yl]-4-pyridyl]-difluoro-methyl]cyclohexanecarboxamide] | 9.06 mL/min/kg | 1.1 µg/mL (≈ 1.58 µM) | 1.1 µg/mL (≈ 1.58 µM) | 1.1 µg/mL (≈ 1.58 µM) | < 2.86 nM | – | – |
| CC(=O)N1CCc2cc(S(=O)(=O)N3CCN(c4cc(Cl)cc(C(F)(F)F)c4)CC3)ccc21 [JH-LPH-33, reference compound] | 20.94 mL/min/kg | > 24 µg/mL | > 24 µg/mL | > 24 µg/mL | 293 nM | antibiotic activity | LPS synthesis pathway inhibition activity |
